In PMC12304826, “Redirecting the Peptide Cleavage Causes Protease Inactivation” (Angewandte Chemie (International Ed. in English), 2025):
Like-named read-outs stand apart in the source and are kept apart here.

Experiments:
human cathepsin S = target: T1, human cathepsin S (Homo sapiens, UniProt P25774); test: Cathepsin S inhibition assay (Cbz-Phe-Arg-AMC); type: biochemical
T1 construct: purchased Enzo Life Sciences, Lörrach, Germany
Experimental: 1. Enzyme Inhibition Assays and Kinetic Data of Inhibition of Cathepsins B, L, K and S General. Human cathepsins were assayed either fluorimetrically or spectrophotometrically as noted below. The 10 mM inhibitor solutions were prepared in DMSO. The final concentration of DMSO in all assays was 2%. Non-linear regressions were conducted with GraFit 5. Residual cathepsin activity at an inhibitor concentration of 20 µM was determined from duplicate measurements based on the product formation after 60 min. Concentration dependent measurements were performed in duplicate measurements with five different inhibitor concentrations when the residual cathepsin activity in the presence of 20 µM inhibitor was below 70% (cathepsin B) or below 50% (cathepsins cathepsins L, K, and S). Progress curves were monitored for 60 min. First-order rate constants, kobs, were determined by non-linear regression following the equation [P] = vi × (1 – exp(-kobs × t))/kobs + d, where [P] is the product concentration, vi is the initial product formation rate, kobs is the observed first-order rate constant, and d is the offset. Mean values of kobs were plotted versus corresponding inhibitor concentrations [I], and second-order rate constants of inactivation, kinac/Ki, were obtained by linear regression. The equation kobs/[I] = (kinac/Ki)/(1 + [S]/Km) was used, where [S] is the substrate concentration and Km is the Michaelis-Menten constant. Standard errors (SE) refer to the linear regression. […]
methyl-coumarin (AMC)-based fluorogenic substrate Cbz-Leu-Arg-AMC was prepared in DMSO. The final concentration of the substrate was 40 μM (= 13.3 Km). When using the spectrofluorometer, into a cuvette containing 960 μL assay buffer, inhibitor solution and DMSO in a total volume of 16 μL, and 4 […]
When using the plate reader, into a well containing 192 µL assay buffer, inhibitor solution and DMSO in a total volume of 3.2 µL and 0.8 µL of the substrate solution were added and mixed. The reaction was initiated by adding 4 µL of the cathepsin K solution.
Cathepsin S inhibition assay.[2] Human recombinant cathepsin S (Enzo Life Sciences, Lörrach, […]
nm and for emission 440 nm. The reactions were followed at 25 °C. Assay buffer was 100 mM sodium phosphate buffer pH 6.0, 100 mM NaCl, 5 mM EDTA, and 0.01% Brij 35. A stock solution of human cathepsin S of 70 μg/mL in 100 mM MES buffer, pH 6.5, 1 mM EDTA, 50 mM L-cysteine, 10 mM DTT, 0.5% Triton X-100 and 30% glycerol was diluted 1:100 with a 50 mM sodium phosphate buffer pH 6.5, 50 mM NaCl, 2 mM EDTA, 0.01% Triton X-100 and 5 mM DTT and incubated for 60 min at 37 °C. A 10 mM stock solution of the fluorogenic substrate Cbz-Phe-Arg-AMC was prepared in DMSO.
The assay was performed with a final substrate concentration of 40 µM (= 0.74 Km). When using the spectrofluorometer, into a cuvette containing 920 μL assay buffer, inhibitor solution and DMSO in a total volume of 16 μL, and 4 μL of the substrate solution were added and mixed. The reaction was initiated by adding 60 μL of the cathepsin S solution. When using the plate reader, into a well containing 188 µL assay buffer, inhibitor solution and DMSO in a total volume of 3.2 µL and 0.8 µL of the substrate solution were added and mixed. The reaction was initiated by adding […] of the cathepsin S solution.

human cathepsin B = target: T2, human cathepsin B (Homo sapiens, UniProt P07858); test: Cathepsin B inhibition assay (chromogenic substrate Cbz-Arg-Arg-pNA); type: biochemical; conditions: for remaining activity at 20 µM: 20 µM inhibitor, duplicate measurements, product formation after 60 min, read-out: r.a. (%), residual enzymatic activity of cathepsin B; for kinact/KI: 1 h; for kinac: calculated from kinac/Ki values and separately obtained Ki values
T2 construct: purchased Calbiochem, Darmstadt, Germany
Experimental: To get a first insight into the interaction with human cathepsin B, the inhibition of the enzyme‐catalyzed cleavage of a chromogenic peptide substrate was examined. […] Active compounds were subjected to kinetic measurements at five different concentrations (Tables 1 and S1).
Figure 1 Cathepsin B‐catalyzed hydrolysis of 500 µM (= 0.45 K m) of Cbz‐Arg‐Arg‐p‐nitroanilide in the absence (black) or presence of increasing concentrations of carbamate 4 (from top to bottom: 0.4, 0.8, 1.2, 1.6, and 2.0 µM).
1. Enzyme Inhibition Assays and Kinetic Data of Inhibition of Cathepsins B, L, K and S General. Human cathepsins were assayed either fluorimetrically or spectrophotometrically as noted below. The 10 mM inhibitor solutions were prepared in DMSO. The final concentration of DMSO in all assays was 2%. Non-linear regressions were conducted with GraFit 5. Residual cathepsin activity at an inhibitor concentration of 20 µM was determined from duplicate measurements based on the product formation after 60 min. Concentration dependent measurements were performed in duplicate measurements with five different inhibitor concentrations when the residual cathepsin activity in the presence of 20 µM inhibitor was below 70% (cathepsin B) or below 50% (cathepsins cathepsins L, K, and S). Progress curves were monitored for 60 min. First-order rate constants, kobs, were determined by non-linear regression following the equation [P] = vi × (1 – exp(-kobs × t))/kobs + d, where [P] is the product concentration, vi is the initial product formation rate, kobs is the observed first-order rate constant, and d is the offset. Mean values of kobs were plotted versus corresponding inhibitor concentrations [I], and second-order rate constants of inactivation, kinac/Ki, were obtained by linear regression. The equation kobs/[I] = (kinac/Ki)/(1 + [S]/Km) was used, where [S] is the substrate concentration and Km is the Michaelis-Menten constant. Standard errors (SE) refer to the linear regression.
Cathepsin B inhibition assay.[1] Human isolated cathepsin B (Calbiochem, Darmstadt, Germany) was assayed spectrophotometrically on a Cary 50 or 100 Bio, Varian, at 405 nm. The reactions were followed at 37 °C. Assay buffer was 100 mM sodium phosphate buffer pH 6.0, 100 mM NaCl, 5 mM EDTA, 0.01% Brij 35. A stock solution of human cathepsin B of 1.81 mg/mL or 0.47 mg/mL in 20 mM sodium acetate buffer pH 5.0, 1 mM ethylenediaminetetraactic acid (EDTA) was diluted 1:500 with assay buffer containing 5 mM dithiothreitol (DTT) and incubated for 30 min at 37 °C. A 100 mM stock solution of the para-nitroaniline (pNA)-based chromogenic substrate Cbz-Arg-Arg-pNA was prepared in DMSO.
The final concentration of the substrate was 500 μM (= 0.45 Km). Into a cuvette containing 960 μL assay buffer, inhibitor solution and DMSO in a total volume of 15 μL, and 5 μL of the substrate solution were added and mixed. The reaction was initiated by adding 20 μL of the enzyme solution. […]

[1] = inhibitor not soluble at 20 µM, calculated for 20 µM from IC50 at two lower concentrations, read-out: Residual activity @ 20 µM (%) Cat S, approximated [e]
[2] = pH 6, five inhibitor concentrations, duplicates, 60 min progress curves, 500 µM Cbz-Arg-Arg-pNA, pH 6.0, 37 °C, read-out: k inac/K i ± SE, second-order rate constant of enzyme inactivation, cathepsin B
[3] = 20 µM inhibitor, 60 min, read-out: Residual activity @ 20 µM (%) Cat S

T1 sequence (P25774 115-331): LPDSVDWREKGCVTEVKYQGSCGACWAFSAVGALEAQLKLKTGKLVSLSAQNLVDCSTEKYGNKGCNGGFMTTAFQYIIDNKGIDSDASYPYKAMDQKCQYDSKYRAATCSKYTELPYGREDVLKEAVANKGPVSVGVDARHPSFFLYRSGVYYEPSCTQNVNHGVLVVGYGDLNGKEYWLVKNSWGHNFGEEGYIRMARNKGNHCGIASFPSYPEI

Row | Structure (SMILES) | remaining activity at 20 µM (human cathepsin B) [%] | kinact/KI (human cathepsin B; [2]) [M⁻¹ s⁻¹] | remaining activity at 20 µM (human cathepsin S; [3]) [%] | other results
1 | CC(C)CC(NC(=O)Oc1ccc(NC(=O)c2ccc(-c3ccccc3)cc2)c(Cl)c1)C(=O)N1CCCC1C(=O)O (stereo not shown) [Compound 25] | ≤ 2 | 3640 ± 60 | – | remaining activity at 20 µM (human cathepsin S; [1]): 53%
2 | CC(C)C[C@H](NC(=O)Oc1ccc(Cl)cc1)C(=O)N[C@@H](Cc1ccccc1)C(=O)OC(C)(C)C [Compound 2] | 92 | – | ≥ 98 | –
3 | CC(C)C[C@H](NC(=O)Oc1ccc(Cl)cc1)C(=O)N[C@@H](Cc1ccccc1)C(=O)O [Compound 4] | ≤ 2 | 745 ± 5 | 83 | –
4 | O=C(NC(CC1CCCCC1)C(=O)NC(Cc1ccccc1)C(=O)O)Oc1ccc(Cl)cc1 (stereo not shown) [Compound 7] | ≤ 2 | 2010 ± 110 | 72 | kinac (human cathepsin B): 0.0200 s⁻¹; Ki (human cathepsin B; non-linear regression of initial rates vi versus inhibitor concentration, read-out: Ki ± SE): 9.96 µM
5 | CC(C)C[C@H](NC(=O)Oc1ccc(NC(=O)N(Cc2ccccc2)Cc2ccccc2)c(Br)c1)C(=O)N1CCC[C@H]1C(=O)O [Compound 26] | – | – | 59 | kinact/KI (human cathepsin B; pH 6, read-out: k inac/K i ± SE, second-order rate constant of enzyme inactivation, cathepsin B): 2660 ± 80 M⁻¹ s⁻¹
6 | CC(C)C[C@H](NC(=O)Oc1cccc(Cl)c1)C(=O)N1CCC[C@H]1C(=O)O [Compound 23] | ≤ 2 | 2760 ± 50 | 89 | –
7 | CC(C)CC(NC(=O)Oc1ccc(NC(=O)C(c2ccccc2)c2ccccc2)c(Br)c1)C(=O)N1CCCC1C(=O)O (stereo not shown) [Compound 27] | ≤ 2 | 6000 ± 100 | 60 | –
8 | CC(C)CC(OC(=O)Nc1ccc(Cl)cc1)C(=O)N1CCC[C@H]1C(=O)O (stereo partly shown) [Compound 17] | 68 | – | 93 | kinact/KI (human cathepsin B; five inhibitor concentrations, duplicates, 60 min progress curves, 500 µM Cbz-Arg-Arg-pNA, pH 6.0, 37 °C, read-out: k inac/K i ± SE, second-order rate constant of enzyme inactivation, cathepsin B): 10.6 ± 1.6 M⁻¹ s⁻¹
9 | CC(C)C[C@@H](C(=O)N1CCC[C@H]1C(=O)O)N(C)C(=O)Oc1ccc(Cl)cc1 [Compound 15] | – | – | ≥ 98 | –
10 | CC(C)C[C@H](NC(=O)Nc1ccc(Cl)cc1)C(=O)N1CCC[C@H]1C(=O)O [Compound 19] | 95 | – | ≥ 98 | –
11 | CC(C)CC(NC(=O)Oc1ccc(NC(=O)C(c2ccccc2)c2ccccc2)c(Cl)c1)C(=O)NC(Cc1ccccc1)C(=O)O (stereo not shown) [Compound 29] | ≤ 2 | 11300 ± 600 | – | remaining activity at 20 µM (human cathepsin S; [1]): 63%
12 | CC(C)C[C@H](NC(=O)Oc1ccc(-c2ccccc2)c(NC(=O)Cc2ccccc2)c1)C(=O)N1CCC[C@H]1C(=O)O [Compound 21] | ≤ 2 | 1340 ± 20 | 89 | –
13 | CC(C)CC(CNC(=O)Oc1ccc(Cl)cc1)C(=O)N[C@H](Cc1ccccc1)C(=O)O (stereo partly shown) [Compound 5] | 11 | 108 ± 5 | – | kinac/Ki ± SE Cat S (human cathepsin S; five inhibitor concentrations, 60 min progress curves): 10.2 M⁻¹ s⁻¹
14 | CC(C)C[C@H](NC(=O)Oc1ccc(Cl)cc1)C(=O)N1CCC[C@H]1C(=O)O [Compound 8] | 4 | 711 ± 40 | ≥ 98 | –
15 | CC(C)CC(NC(=O)Oc1ccc(Cl)c(NC(=O)C(c2ccccc2)c2ccccc2)c1)C(=O)N1CCCC1C(=O)O (stereo not shown) [Compound 22] | ≤ 2 | 3830 ± 70 | 87 | –
16 | CC(C)CC(OC(=O)Nc1ccc(Cl)cc1)C(=O)N[C@@H](Cc1ccccc1)C(=O)O (stereo partly shown) [Compound 16] | 91 | – | 56 | –
17 | CC(C)C[C@H](NC(=O)Oc1ccc(Cl)cc1)C(=O)N1CCCC[C@H]1C(=O)O [Compound 10] | 5 | 933 ± 40 | ≥ 98 | –
18 | O=C(NC(CC1CCCCC1)C(=O)NC(Cc1ccccc1)C(=O)O)Oc1ccc(NC(=O)C(c2ccccc2)c2ccccc2)c(Cl)c1 (stereo not shown) [Compound 30] | ≤ 2 | > 10000 | – | remaining activity at 20 µM (human cathepsin S; [1]): 42%; k inac/K i ± SE, second-order rate constant of enzyme inactivation, cathepsin B (human cathepsin B; five inhibitor concentrations, duplicates, 60 min progress curves, 500 µM Cbz-Arg-Arg-pNA, pH 6.0, 37 °C): 13,800 M^−1s^−1
19 | CC(C)CC(CNC(=O)Oc1ccc(Cl)cc1)C(=O)N1CCC[C@@H]1C(=O)O (stereo partly shown) [Compound 9] | 53 | 30.3 ± 4.1 | 92 | –
20 | COC(=O)C(Cc1ccccc1)NC(=O)C(CC(C)C)NC(=O)Oc1ccc(Cl)cc1 (stereo not shown) [Compound 3] | 97 | – | 79 | –
21 | CC(C)C[C@H](NC(=O)Oc1ccc(NC(=O)Cc2ccccc2)c(Cl)c1)C(=O)N1CCC[C@H]1C(=O)O [Compound 24] | ≤ 2 | 6530 ± 310 | 90 | –
22 | CC(C)C[C@H](NC(=O)Nc1ccc(Cl)cc1)C(=O)N[C@@H](Cc1ccccc1)C(=O)O [Compound 18] | 90 | – | 78 | –
23 | O=C(NC(CC1CCCCC1)C(=O)NC(Cc1ccccc1)C(=O)O)Oc1ccc(NC(=O)C(Cc2ccccc2)Cc2ccccc2)c(Cl)c1 (stereo not shown) [Compound 31] | ≤ 2 | 23600 ± 1900 | – | remaining activity at 20 µM (human cathepsin S; [1]): 46%; fold lower K i value in comparison with 7 (human cathepsin B; 31 versus 7): more than 20 fold; kinac (human cathepsin B): 0.0104 s⁻¹; Ki (human cathepsin B; non-covalent enzyme-inhibitor complex, read-out: K i value): 0.441 µM
